Data as given in patent publication US20250268894A1, “MACROCYCLE COMPOUNDS FOR THE TREATMENT OF CANCER” (Hoffmann-La Roche Inc., priority 2022, published 2025).

Columns and labels:
[1] = test system: NCI-H358 cells (KRAS G12C); assay: Cell viability assay (Cell Counting Kit-8), KRAS G12C; type: cell-based; details: Homo sapiens, NCI-H358, 72 hrs
Experimental: (§1) The purpose of this cellular assay was to determine the effects of test compounds on the proliferation of human cancer cell lines NCI-H358 (ATCC-CRL5807) cells, AGS (ATCC-CRL-1739) cells, SW620 (ATCC-CCL-227) over a 3-day treatment period by quantifying the amount of NADPH present at endpoint using Cell Counting Kit-8.
(§2) Cells were seeded at 5,000 cells/well (NCI-H358), 2,000 cells/well (AGS)2,000 cells/well (SW620) in 96-well assay plates (Corning-3699) and incubated overnight. On the day of the assay, diluted compounds were then added in a final concentration of 0.5% DMSO. After 72 hrs incubation, a tenth of the volume of cell counting kit 8 (Dnjindo-CK04) was added into each well. Read the signal (OD450 minus OD650) using EnVision after 2 hrs incubation. IC50 was determined by fitting a 4-parameter sigmoidal concentration response model.

AGS cells (KRAS G12D) = assay: Cell viability assay (Cell Counting Kit-8), KRAS G12D; type: cell-based; details: Homo sapiens, 72 hrs
Experimental: as §1, §2

SW620 cells (KRAS G12V) = assay: Cell viability assay (Cell Counting Kit-8), KRAS G12V; type: cell-based; details: Homo sapiens, SW-620, SW620, 72 hrs
Experimental: as §1, §2

KRAS G12C-BRAF complex = KRAS G12C-BRAF complex (Homo sapiens (Human), UniProt P01116+P62937, G12C); assay: KRAS-BRAF with CYPA (500 nM) interaction assay (TR-FRET), G12C; type: biochemical
Sequence of KRAS G12C-BRAF complex (P01116-2 other isoform, or with tags, fused parts or gaps G12C): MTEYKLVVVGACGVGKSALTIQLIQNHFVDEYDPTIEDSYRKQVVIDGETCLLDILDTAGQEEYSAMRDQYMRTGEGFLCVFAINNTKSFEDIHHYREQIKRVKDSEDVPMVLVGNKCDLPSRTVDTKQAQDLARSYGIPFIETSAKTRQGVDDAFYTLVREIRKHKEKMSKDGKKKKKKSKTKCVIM
Sequence of KRAS G12C-BRAF complex (P62937 whole entry): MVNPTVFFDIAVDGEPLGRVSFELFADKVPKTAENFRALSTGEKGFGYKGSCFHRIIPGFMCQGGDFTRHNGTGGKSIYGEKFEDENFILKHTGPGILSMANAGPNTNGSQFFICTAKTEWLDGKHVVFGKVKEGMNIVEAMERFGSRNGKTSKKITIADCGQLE
Experimental: (§3) Kras-BRAF with CYPA (500 nM) Interaction Assay In this example, TR-FRET was also used to measure the compound or compound-CYPA dependent disruption of the KRAS G12C-BRAF complex. This protocol was also used to measure disruption of KRAS G12D or KRAS G12V binding to BRAF by a compound of the invention, respectively. […] Compound was present in plate wells as a 16-point 3-fold dilution series starting at a final concentration of 10 μM and incubated for 3 hours. […] TR-FRET signal was read on a […] microplate reader (Ex320 nm, Em 665/615 nm). Compounds that facilitate disruption of the KRAS-BRAF complex were identified as those eliciting a decrease in the TR-FRET ratio relative to DMSO control wells.

KRAS G12D-BRAF complex = KRAS G12D-BRAF complex (Homo sapiens (Human), UniProt P01116+P62937, G12D); assay: KRAS-BRAF with CYPA (500 nM) interaction assay (TR-FRET), G12D; type: biochemical
Sequence of KRAS G12D-BRAF complex (P01116-2 other isoform, or with tags, fused parts or gaps G12D): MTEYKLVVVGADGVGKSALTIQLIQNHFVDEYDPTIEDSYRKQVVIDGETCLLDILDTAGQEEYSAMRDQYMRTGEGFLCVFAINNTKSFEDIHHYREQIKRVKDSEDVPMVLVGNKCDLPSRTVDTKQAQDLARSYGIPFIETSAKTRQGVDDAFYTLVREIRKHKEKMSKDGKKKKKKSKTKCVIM
Sequence of KRAS G12D-BRAF complex (P62937 whole entry): as the sequence (P62937 whole entry) above
Experimental: as §3

KRAS G12V-BRAF complex = KRAS G12V-BRAF complex (Homo sapiens (Human), UniProt P01116+P62937, G12V); assay: KRAS-BRAF with CYPA (500 nM) interaction assay (TR-FRET), G12V; type: biochemical
Sequence of KRAS G12V-BRAF complex (P01116-2 other isoform, or with tags, fused parts or gaps G12V): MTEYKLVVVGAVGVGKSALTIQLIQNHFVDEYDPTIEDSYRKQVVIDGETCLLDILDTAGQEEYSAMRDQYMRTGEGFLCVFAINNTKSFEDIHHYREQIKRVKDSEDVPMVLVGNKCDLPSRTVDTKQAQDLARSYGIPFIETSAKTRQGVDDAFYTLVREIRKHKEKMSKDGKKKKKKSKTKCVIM
Sequence of KRAS G12V-BRAF complex (P62937 whole entry): as the sequence (P62937 whole entry) above
Experimental: as §3

[2] = test system: phosphorylation of ERK, KRAS G12C in NCI-H358 cells; assay: pERK inhibition assay, KRAS G12C in NCI-H358 cells; type: cell-based, human; details: Homo sapiens, NCI-H358, 4 hours
Experimental: (§4) This assay is to measure the ability of test compounds in inhibiting the phosphorylation of ERK, the downstream signaling of KRAS G12C in NCI-H358 cells, KRAS G12D in AGS cells, and KRAS G12V in SW620. NCI-H358 (ATCC-CRL5807) cells, AGS (ATCC-CRL-1739) cells, SW620 (ATCC-CCL-227) cells were all grown and maintained using RPMI-1640 medium (Thermo Fisher Scientific) with 10% fetal bovine serum and 1% penicillin/streptomycin. On the day prior to compound addition, cells were plated in tissue culture-treated 96 well plates (Corning-3699) at a density of 30,000 cell/well, 20,000 cell/well, 30,000 cell/well for NCI-H358, AGS and SW620 respectively, and allowed for attachment overnight. Diluted compounds were then added in a final concentration of 0.5% DMSO. After 4 hours of incubation, the medium was removed, 100 μL of 4% formaldehyde was added, and the assay plates were incubated at room temperature for 20 minutes. The plates were then washed once with phosphate buffered saline (PBS), and permeabilized with 100 μL of chilled methanol for 10 minutes. Non-specific antibody binding to the plates was blocked using 50 μL 1X BSA blocking buffer (Thermo-37520, 10-fold dilution by Phosphate-Buffered Saline Tween (PBST) for at least 1 hour at room temperature.
(§5) The amount of phosphor-ERK was determined using an antibody specific for phosphorylated form of ERK. Primary antibody (PERK, CST-4370, Cell Signaling Technology) was diluted 1:300 in blocking buffer, with 50 μL aliquoted to each well, and incubated overnight at 4° C. Cells was washed five times for 5 minutes with PBST. Secondary antibody (HRP-linked anti-rabbit IgG, CST-7074, Cell Signaling Technology) was diluted 1:1000 in blocking buffer, and 50 μL was added to each well and incubated 1-2 hrs at room temperature. Cells was washed […] for 5 minutes with PBST, 100 μL TMB ELISA substrate (abcam-ab171523) were added and gently shake for 20 minutes. 50 μL stop solution (abcam-ab171529) were added, and then read the signal (OD450) by EnVision.
(§6) IC50 was determined by fitting a 4-parameter sigmoidal concentration response model.

[3] = test system: phosphorylation of ERK, KRAS G12D in AGS cells; assay: pERK inhibition assay, KRAS G12D in AGS cells; type: cell-based, human; details: Homo sapiens, 4 hours
Experimental: as §4, §5, §6

[4] = test system: phosphorylation of ERK, KRAS G12V in SW620 cells; assay: pERK inhibition assay, KRAS G12V in SW620; type: cell-based, human; details: Homo sapiens, SW-620, SW620, 4 hours
Experimental: as §4, §5, §6

With `CO[C@@H](C)c1ncc(N2CCOCC2)cc1-c1c2c3cc(c(F)cc3n1CC(F)(F)F)-c1csc(n1)C[C@H](NC(=O)[C@H](C(C)C)N(C)C(=O)N1CCOCC1)C(=O)N1CCC[C@H](N1)C(=O)OCC(C)(C)C2` (atropisomer, axis not shown; (M)) [Example 11, N-[(1S)-1-[[(7S,13S)-24-fluoro-20-(20M)-[2-[(1S)-1-methoxyethyl]-5-morpholino-3-pyridyl]-17,17-dimethyl-8,14-dioxo-21-(2,2,2-trifluoroethyl)-15-oxa-4-thia-9,21,27,28-tetrazapentacyclo[17.5.2.1^2,5.1^9,13.0^22,26]octacosa-1(25),2,5(28),19,22(26),23-hexaen-7-yl]carbamoyl]-2-methyl-propyl]-N-methyl-morpholine-4-carboxamide] the IC50 [1] was 0.002 µM, the IC50 (AGS cells (KRAS G12D)) was 0.006 µM and the IC50 (SW620 cells (KRAS G12V)) was 0.001 µM. The IC50 (KRAS G12C-BRAF complex) was 0.024 µM, the IC50 (KRAS G12D-BRAF complex) was 0.112 µM and the IC50 (KRAS G12V-BRAF complex) was 0.059 µM. The IC50 [2] was 0.003 µM, the IC50 [3] was 0.001 µM and the IC50 [4] was 0.001 µM.
For `CO[C@@H](C)c1ncc(N2CCN(CC(F)(F)F)CC2)cc1-c1c2c3cc(c(F)cc3n1CC(F)(F)F)-c1csc(n1)C[C@H](NC(=O)[C@H](C(C)C)N(C)C(=O)N1CC(N(C)C)C1)C(=O)N1CCC[C@H](N1)C(=O)OCC(C)(C)C2` (atropisomer, axis not shown; (M)) [Example 12, 3-(dimethylamino)-N-[(1S)-1-[[(7S,13S)-24-fluoro-(20M)-20-[2-[(1S)-1-methoxyethyl]-5-[4-(2,2,2-trifluoroethyl)piperazin-1-yl]-3-pyridyl]-17,17-dimethyl-8,14-dioxo-21-(2,2,2-trifluoroethyl)-15-oxa-4-thia-9,21,27,28-tetrazapentacyclo[17.5.2.1^2,5.1^9,13.0^22,26]octacosa-1 (25),2,5 (28),19,22 (26),23-hexaen-7-yl]carbamoyl]-2-methyl-propyl]-N-methyl-azetidine-1-carboxamide], the IC50 [1] was 0.009 µM, the IC50 (AGS cells (KRAS G12D)) was 0.038 µM and the IC50 (SW620 cells (KRAS G12V)) was 0.007 µM. For the same molecule, the IC50 (KRAS G12C-BRAF complex) was 0.029 µM, the IC50 (KRAS G12D-BRAF complex) was 0.14 µM and the IC50 (KRAS G12V-BRAF complex) was 0.085 µM. It also gave an IC50 [2] of 0.006 µM, an IC50 [3] of 0.015 µM and an IC50 [4] of 0.004 µM.
`CCn1c(-c2cc(N3CCOCC3)cnc2[C@H](C)OC)c2c3cc(c(F)cc31)-c1csc(n1)C[C@H](NC(=O)[C@H](C(C)C)N(C)C(=O)NCC(F)(F)F)C(=O)N1CCC[C@H](N1)C(=O)OCC(C)(C)C2` (atropisomer, axis not shown; (M)) [Example 13, (2S)-N-[(7S,13S)-21-ethyl-24-fluoro-(20M)-20-[2-[(1S)-1-methoxyethyl]-5-morpholino-3-pyridyl]-17,17-dimethyl-8,14-dioxo-15-oxa-4-thia-9,21,27,28-tetrazapentacyclo[17.5.2.1^2,5.1^9,13.0^22,26]octacosa-1 (25),2,5 (28),19,22 (26),23-hexaen-7-yl]-3-methyl-2-[methyl(2,2,2-trifluoroethylcarbamoyl)amino]butanamide] gave an IC50 [1] of 0.026 µM, an IC50 (AGS cells (KRAS G12D)) of 0.447 µM and an IC50 (SW620 cells (KRAS G12V)) of 0.029 µM. It also gave an IC50 (KRAS G12C-BRAF complex) greater than 10 µM, an IC50 (KRAS G12D-BRAF complex) greater than 10 µM and an IC50 (KRAS G12V-BRAF complex) greater than 10 µM. The IC50 [2] was 0.019 µM, the IC50 [3] was 0.046 µM and the IC50 [4] was 0.008 µM.
`CCn1c(-c2cc(N3CCOCC3)cnc2[C@H](C)OC)c2c3cc(c(F)cc31)-c1csc(n1)C[C@H](NC(=O)[C@H](C(C)C)N(C)C(=O)N1CC(C(F)(F)F)C1)C(=O)N1CCC[C@H](N1)C(=O)OCC(C)(C)C2` (atropisomer, axis not shown; (M)) [Example 14, N-[(1S)-1-[[(7S,13S)-21-ethyl-24-fluoro-(20M)-20-[2-[(1S)-1-methoxyethyl]-5-morpholino-3-pyridyl]-17,17-dimethyl-8,14-dioxo-15-oxa-4-thia-9,21,27,28-tetrazapentacyclo[17.5.2.1^2,5.1^9,13.0^22,26]octacosa-1 (25),2,5 (28),19,22 (26),23-hexaen-7-yl]carbamoyl]-2-methyl-propyl]-N-methyl-3-(trifluoromethyl) azetidine-1-carboxamide] gave an IC50 [1] of 0.1 µM, an IC50 (AGS cells (KRAS G12D)) greater than 10 µM and an IC50 (SW620 cells (KRAS G12V)) of 0.073 µM. It also gave an IC50 (KRAS G12C-BRAF complex) greater than 10 µM, an IC50 (KRAS G12D-BRAF complex) greater than 10 µM and an IC50 (KRAS G12V-BRAF complex) greater than 10 µM. It also gave an IC50 [2] of 0.028 µM, an IC50 [3] of 0.032 µM and an IC50 [4] of 0.012 µM.
`CO[C@@H](C)c1ncc(N2CCN(CC(F)(F)F)CC2)cc1-c1c2c3c(F)c(ccc3n1CC(F)(F)F)-c1csc(n1)C[C@H](NC(=O)[C@H](C(C)C)N(C)C(=O)N1CCOCC1)C(=O)N1CCC[C@H](N1)C(=O)OCC(C)(C)C2` (atropisomer, axis not shown; (M)) [Example 17, N-[(1S)-1-[[(7S,13S)-25-fluoro-(20M)-20-[2-[(1S)-1-methoxyethyl]-5-[4-(2,2,2-trifluoroethyl)piperazin-1-yl]-3-pyridyl]-17,17-dimethyl-8,14-dioxo-21-(2,2,2-trifluoroethyl)-15-oxa-4-thia-9,21,27,28-tetrazapentacyclo[17.5.2.1^2,5.1^9,13.0^22,26]octacosa-1 (25),2,5 (28),19,22 (26),23-hexaen-7-yl]carbamoyl]-2-methyl-propyl]-N-methyl-morpholine-4-carboxamide] was tested, and the IC50 [1] was 0.004 µM, the IC50 (AGS cells (KRAS G12D)) was 0.046 µM and the IC50 (SW620 cells (KRAS G12V)) was 0.006 µM. For the same molecule, the IC50 (KRAS G12C-BRAF complex) was 0.002 µM, the IC50 (KRAS G12D-BRAF complex) was 0.007 µM and the IC50 (KRAS G12V-BRAF complex) was 0.004 µM. For the same molecule, the IC50 [2] was 0.008 µM, the IC50 [3] was 0.004 µM and the IC50 [4] was 0.004 µM.
